Results: ChEMBL document CHEMBL1130525, “Robustaflavone, a naturally occurring biflavanoid, is a potent non-nucleoside inhibitor of hepatitis B virus replication in vitro” (Bioorg Med Chem Lett, 1997)

Columns and labels:
HepG2 [1] = test: Effective concentration necessary to decrease extracellular Hepatitis B virus DNA levels by 90% in human hepatoblastoma cell line (2.2.15 cells) in vitro; assay type: functional
HepG2 [2] = test: Relative level of HBV viral antigen (HBeAg) following treatment of human hepatoblastoma cell line (2.2.15 cells) with the compound; assay type: functional
HepG2 [3] = test: Effective concentration necessary to decrease extracellular Hepatitis B virus DNA levels by 50% in human hepatoblastoma cell line (2.2.15 cells) in vitro; assay type: functional, cell-based
[4] = In vitro selectivity index measured for IC50 to that of EC90 was determined in human hepatoblastoma cell line (2.2.15 cells); assay type: functional
HepG2 [5] = test: Relative level of HBV viral DNA (Intracellular) following treatment of human hepatoblastoma cell line (2.2.15 cells) with the compound; assay type: functional
HepG2 [6] = test: Relative level of HBV viral antigen (HBcAg) following treatment of human hepatoblastoma cell line (2.2.15 cells) with the compound; assay type: functional
HepG2 [7] = test: Relative level of HBV viral antigen (HBsAg) following treatment of human hepatoblastoma cell line (2.2.15 cells) with the compound; assay type: functional
HepG2 [8] = test: Cytotoxicity towards human hepatoblastoma cell line (2.2.15 cells) measured by inhibition of neutral red dye uptake in vitro; assay type: functional, cell-based
HepG2 [9] = test: Relative level of HBV viral mRNA (3.6 kb mRNA) following treatment of human hepatoblastoma cell line (2.2.15 cells) with the compound; assay type: functional
HepG2 [10] = test: Relative level of HBV viral DNA (Extracellular) following treatment of human hepatoblastoma cell line (2.2.15 cells) with the compound; assay type: functional
HepG2 [11] = test: Relative level of HBV viral mRNA (2.1 kb mRNA) following treatment of human hepatoblastoma cell line (2.2.15 cells) with the compound; assay type: functional

SMILES | EC90 (HepG2 [1]) [µM] | Relative level (HepG2 [2]) | EC50 (HepG2 [3]) [µM] | Ratio [4] | Relative level (HepG2 [5]) | Relative level (HepG2 [6]) | Relative level (HepG2 [7]) | IC50 (HepG2 [8]) [µM] | Relative level (HepG2 [9]) | Relative level (HepG2 [10]) | Relative level (HepG2 [11])
Nc1ccn([C@H]2CC[C@@H](CO)O2)c(=O)n1 [ZALCITABINE] | 8.4 | 88 | 1.4 | 30 | 6 | 91 | 90 | 252 | 94 | 1 | 87
Nc1nc(O)c2ncn(CCC(CO)CO)c2n1 [PENCICLOVIR] | 0.92 | – | 0.19 | 471 | – | – | – | 433 | – | – | –
Nc1ccn([C@@H]2CS[C@H](CO)O2)c(=O)n1 [LAMIVUDINE] | 0.16 | – | 0.038 | 11200 | – | – | – | 1790 | – | – | –
O=c1cc(-c2ccc(O)c(-c3c(O)cc4oc(-c5ccc(O)cc5)cc(=O)c4c3O)c2)oc2cc(O)cc(O)c12 [ROBUSTAFLAVONE] | 2.2 | 86 | 0.25 | 153 | 5 | 138 | 97 | 337 | 93 | 1 | 106
